Data on twelve compounds can be found in patent US20250145665A1, “MACROCYCLIC PEPTIDES USEFUL AS MODULATORS OF TNF ALPHA” (Bristol-Myers Squibb Company, priority 2023, published 2025).

One may read the IC50 as the concentration at which inhibition is half-maximal.

Positions of bridges follow the written chain, without caps; N, C: chain ends. Non-standard residues stand in square brackets, D forms with d. Residues, ends and D or L forms follow the SMILES beside them. Ala(morpholin-4-yl) = N[C@@H](CN1CCOCC1)C(=O)O; Phe(4-CH2NH2) = NCc1ccc(C[C@H](N)C(=O)O)cc1; Bip = N[C@@H](Cc1ccc(-c2ccccc2)cc1)C(=O)O; Phe(4-NH2) = Nc1ccc(C[C@H](N)C(=O)O)cc1; Phe(4-F) = N[C@@H](Cc1ccc(F)cc1)C(=O)O; Phe(2-F) = N[C@@H](Cc1ccccc1F)C(=O)O; Val(3-OH) = CC(C)(O)[C@H](N)C(=O)O; 3Pal = N[C@@H](Cc1cccnc1)C(=O)O; Sar = CNCC(=O)O

The experiment deals with TNFα (Homo sapiens, UniProt P01375). Put plainly: TNF-Induced HEK-Blue Assay. Conditions: HEK-Blue-CD40L cells, NF-kB-driven secreted alkaline phosphatase reporter; TNFα 0.5 ng/ml; 18 h; read-out: TNF induced HEK-Blue assay IC50 value. It is filed as cell-based.
TNFα, sequence (P01375 77-233 limits assumed): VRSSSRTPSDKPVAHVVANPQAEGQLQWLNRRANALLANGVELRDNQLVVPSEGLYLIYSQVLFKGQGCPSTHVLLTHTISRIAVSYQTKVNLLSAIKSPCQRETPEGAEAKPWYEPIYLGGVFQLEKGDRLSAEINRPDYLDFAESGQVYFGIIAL
`CC(C)C[C@@H]1NC(=O)[C@H](Cc2ccc(O)cc2)NC(=O)[C@H](C(C)C)NC(=O)[C@@H]2CCCN2C(=O)[C@H](C(C)C)NC(=O)[C@H](CCCNC(=N)N)NC(=O)[C@H](CC(=O)O)NC(=O)[C@H](Cc2ccc(O)cc2)NC(=O)CN(C)C(=O)[C@H](Cc2ccc(-c3ccccc3)cc2)NC(=O)[C@H](Cc2ccc(-c3ccccc3)cc2)NC(=O)[C@H](C(C)(C)O)NC(=O)CSC[C@@H](C(=O)NCC(N)=O)NC1=O` [Example 50] ({CH2CO}-[Val(3-OH)][Bip][Bip][Sar]YDRVPVYLCG-NH2; thioether N-13): the IC50 lay within 50 to 200 nM.
As for `CC(C)C[C@@H]1NC(=O)[C@H](CCCNC(=N)N)NC(=O)[C@H](C(C)C)NC(=O)[C@@H]2CCCN2C(=O)[C@H](Cc2ccc(CN)cc2)NC(=O)[C@H](CCCNC(=N)N)NC(=O)[C@H](CC(=O)O)NC(=O)[C@@H]2CCCN2C(=O)CN(C)C(=O)[C@H](Cc2ccc(-c3ccccc3)cc2)NC(=O)[C@H](Cc2ccc(-c3ccccc3)cc2)NC(=O)[C@H](CN2CCOCC2)NC(=O)CSC[C@@H](C(=O)NCC(N)=O)NC1=O` [Example 51] ({CH2CO}-[Ala(morpholin-4-yl)][Bip][Bip][Sar]PDR[Phe(4-CH2NH2)]PVRLCG-NH2; thioether N-13), the IC50 was 200 to 2000 nM.
For `CC(C)C[C@@H]1NC(=O)[C@H](CCCNC(=N)N)NC(=O)[C@H](C(C)C)NC(=O)[C@@H]2CCCN2C(=O)[C@H](Cc2ccc(F)cc2)NC(=O)[C@H](CCCNC(=N)N)NC(=O)[C@H](CC(=O)O)NC(=O)[C@@H]2CCCN2C(=O)CN(C)C(=O)[C@H](Cc2ccc(-c3ccccc3)cc2)NC(=O)[C@H](Cc2ccc(-c3ccccc3)cc2)NC(=O)[C@H](CN2CCOCC2)NC(=O)CSC[C@@H](C(=O)NCC(N)=O)NC1=O` [Example 52] ({CH2CO}-[Ala(morpholin-4-yl)][Bip][Bip][Sar]PDR[Phe(4-F)]PVRLCG-NH2; thioether N-13), the IC50 was 200 to 2000 nM.
For the compound `CC(C)C[C@@H]1NC(=O)[C@H](CCCNC(=N)N)NC(=O)[C@H](C(C)C)NC(=O)[C@@H]2CCCN2C(=O)[C@H](Cc2ccccc2F)NC(=O)[C@H](CCCNC(=N)N)NC(=O)[C@H](CC(=O)O)NC(=O)[C@@H]2CCCN2C(=O)CN(C)C(=O)[C@H](Cc2ccc(-c3ccccc3)cc2)NC(=O)[C@H](Cc2ccc(-c3ccccc3)cc2)NC(=O)[C@H](CN2CCOCC2)NC(=O)CSC[C@@H](C(=O)NCC(N)=O)NC1=O` [Example 53] ({CH2CO}-[Ala(morpholin-4-yl)][Bip][Bip][Sar]PDR[Phe(2-F)]PVRLCG-NH2; thioether N-13), the IC50 was 200 to 2000 nM.
For the compound `CC(C)C[C@@H]1NC(=O)[C@H](CCCNC(=N)N)NC(=O)[C@H](C(C)C)NC(=O)[C@@H]2CCCN2C(=O)[C@H](Cc2cccnc2)NC(=O)[C@H](CCCNC(=N)N)NC(=O)[C@H](CC(=O)O)NC(=O)[C@@H]2CCCN2C(=O)CN(C)C(=O)[C@H](Cc2ccc(-c3ccccc3)cc2)NC(=O)[C@H](Cc2ccc(-c3ccccc3)cc2)NC(=O)[C@H](CN2CCOCC2)NC(=O)CSC[C@@H](C(=O)NCC(N)=O)NC1=O` [Example 54] ({CH2CO}-[Ala(morpholin-4-yl)][Bip][Bip][Sar]PDR[3Pal]PVRLCG-NH2; thioether N-13), the IC50 was 50 to 200 nM.
In the case of `CC(C)C[C@@H]1NC(=O)[C@H](CCCNC(=N)N)NC(=O)[C@H](C(C)C)NC(=O)[C@@H]2CCCN2C(=O)[C@H](Cc2ccc(N)cc2)NC(=O)[C@H](CCCNC(=N)N)NC(=O)[C@H](CC(=O)O)NC(=O)[C@@H]2CCCN2C(=O)CN(C)C(=O)[C@H](Cc2ccc(-c3ccccc3)cc2)NC(=O)[C@H](Cc2ccc(-c3ccccc3)cc2)NC(=O)[C@H](CN2CCOCC2)NC(=O)CSC[C@@H](C(=O)NCC(N)=O)NC1=O` [Example 55] ({CH2CO}-[Ala(morpholin-4-yl)][Bip][Bip][Sar]PDR[Phe(4-NH2)]PVRLCG-NH2; thioether N-13), the IC50 fell in the range of 50 to 200 nM.
For `CC(C)C[C@@H]1NC(=O)[C@H](CCCNC(=N)N)NC(=O)[C@H](C(C)C)NC(=O)[C@@H]2CCCN2C(=O)[C@H](Cc2ccc(O)cc2)NC(=O)[C@H](CCCNC(=N)N)NC(=O)[C@H](CC(=O)O)NC(=O)[C@@H]2CCCN2C(=O)CN(C)C(=O)[C@H](Cc2ccc(-c3ccccc3)cc2)NC(=O)[C@H](Cc2ccc(-c3ccccc3)cc2)NC(=O)[C@H](CN2CCOCC2)NC(=O)CSC[C@@H](C(=O)NCC(N)=O)NC1=O` [Example 56] ({CH2CO}-[Ala(morpholin-4-yl)][Bip][Bip][Sar]PDRYPVRLCG-NH2; thioether N-13), the half-inhibitory concentration (IC50) lay in the range of 50 to 200 nM.
As for `CC(C)C[C@@H]1NC(=O)[C@H](CCCNC(=N)N)NC(=O)[C@H](C(C)C)NC(=O)[C@@H]2CCCN2C(=O)[C@H](Cc2ccc(CN)cc2)NC(=O)[C@H](CCCNC(=N)N)NC(=O)[C@H](CC(=O)O)NC(=O)[C@@H]2CCCN2C(=O)CN(C)C(=O)[C@H](Cc2ccc(-c3ccccc3)cc2)NC(=O)[C@H](Cc2ccc(-c3ccccc3)cc2)NC(=O)[C@H](C(C)(C)O)NC(=O)CSC[C@@H](C(=O)NCC(N)=O)NC1=O` [Example 57] ({CH2CO}-[Val(3-OH)][Bip][Bip][Sar]PDR[Phe(4-CH2NH2)]PVRLCG-NH2; thioether N-13), the IC50 is 50 to 200 nM.
Turning to `CC(C)C[C@@H]1NC(=O)[C@H](CCCNC(=N)N)NC(=O)[C@H](C(C)C)NC(=O)[C@@H]2CCCN2C(=O)[C@H](Cc2ccc(F)cc2)NC(=O)[C@H](CCCNC(=N)N)NC(=O)[C@H](CC(=O)O)NC(=O)[C@@H]2CCCN2C(=O)CN(C)C(=O)[C@H](Cc2ccc(-c3ccccc3)cc2)NC(=O)[C@H](Cc2ccc(-c3ccccc3)cc2)NC(=O)[C@H](C(C)(C)O)NC(=O)CSC[C@@H](C(=O)NCC(N)=O)NC1=O` [Example 58] ({CH2CO}-[Val(3-OH)][Bip][Bip][Sar]PDR[Phe(4-F)]PVRLCG-NH2; thioether N-13), the IC50 fell in the range of 50 to 200 nM.
As for `CC(C)C[C@@H]1NC(=O)[C@H](CCCNC(=N)N)NC(=O)[C@H](C(C)C)NC(=O)[C@@H]2CCCN2C(=O)[C@H](Cc2ccccc2F)NC(=O)[C@H](CCCNC(=N)N)NC(=O)[C@H](CC(=O)O)NC(=O)[C@@H]2CCCN2C(=O)CN(C)C(=O)[C@H](Cc2ccc(-c3ccccc3)cc2)NC(=O)[C@H](Cc2ccc(-c3ccccc3)cc2)NC(=O)[C@H](C(C)(C)O)NC(=O)CSC[C@@H](C(=O)NCC(N)=O)NC1=O` [Example 59] ({CH2CO}-[Val(3-OH)][Bip][Bip][Sar]PDR[Phe(2-F)]PVRLCG-NH2; thioether N-13), the IC50 lay within 200 to 2000 nM.
As to `CC(C)C[C@@H]1NC(=O)[C@H](CCCNC(=N)N)NC(=O)[C@H](C(C)C)NC(=O)[C@@H]2CCCN2C(=O)[C@H](Cc2cccnc2)NC(=O)[C@H](CCCNC(=N)N)NC(=O)[C@H](CC(=O)O)NC(=O)[C@@H]2CCCN2C(=O)CN(C)C(=O)[C@H](Cc2ccc(-c3ccccc3)cc2)NC(=O)[C@H](Cc2ccc(-c3ccccc3)cc2)NC(=O)[C@H](C(C)(C)O)NC(=O)CSC[C@@H](C(=O)NCC(N)=O)NC1=O` [Example 60] ({CH2CO}-[Val(3-OH)][Bip][Bip][Sar]PDR[3Pal]PVRLCG-NH2; thioether N-13), the 50% inhibitory concentration (IC50) was in the range of 200 to 2000 nM.
With `CC(C)C[C@@H]1NC(=O)[C@H](CCCNC(=N)N)NC(=O)[C@H](C(C)C)NC(=O)[C@@H]2CCCN2C(=O)[C@H](Cc2ccc(N)cc2)NC(=O)[C@H](CCCNC(=N)N)NC(=O)[C@H](CC(=O)O)NC(=O)[C@@H]2CCCN2C(=O)CN(C)C(=O)[C@H](Cc2ccc(-c3ccccc3)cc2)NC(=O)[C@H](Cc2ccc(-c3ccccc3)cc2)NC(=O)[C@H](C(C)(C)O)NC(=O)CSC[C@@H](C(=O)NCC(N)=O)NC1=O` [Example 61] ({CH2CO}-[Val(3-OH)][Bip][Bip][Sar]PDR[Phe(4-NH2)]PVRLCG-NH2; thioether N-13), the IC50 lay in the range of 200 to 2000 nM.
